Data on 36 compounds can be found in ChEMBL document CHEMBL1201862, “PubChem BioAssay data set” (2004).

One may read the EC50 as the concentration at which the effect is half-maximal. The AC50 is the midpoint of the concentration-response curve, whichever way the signal moves. In general, CC50 refers to the concentration that lowers cell viability or growth by half.

The source made the active and inactive calls.

Sequence of Cytochrome P450 2D6 (P10635 whole entry): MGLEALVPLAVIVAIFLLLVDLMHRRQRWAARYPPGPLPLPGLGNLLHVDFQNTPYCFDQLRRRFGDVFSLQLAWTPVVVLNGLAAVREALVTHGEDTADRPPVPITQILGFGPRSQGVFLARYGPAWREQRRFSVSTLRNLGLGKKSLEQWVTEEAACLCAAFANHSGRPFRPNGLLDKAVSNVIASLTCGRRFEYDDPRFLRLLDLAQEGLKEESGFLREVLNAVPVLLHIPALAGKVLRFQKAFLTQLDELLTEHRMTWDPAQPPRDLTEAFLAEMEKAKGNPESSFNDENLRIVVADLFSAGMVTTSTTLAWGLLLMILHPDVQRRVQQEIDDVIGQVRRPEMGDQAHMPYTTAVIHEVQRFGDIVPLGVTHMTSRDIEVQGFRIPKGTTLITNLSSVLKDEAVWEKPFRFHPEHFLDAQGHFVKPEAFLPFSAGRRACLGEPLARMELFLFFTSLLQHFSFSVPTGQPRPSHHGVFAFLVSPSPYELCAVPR
Sequence of Cytochrome P450 2C19 (P33261 whole entry): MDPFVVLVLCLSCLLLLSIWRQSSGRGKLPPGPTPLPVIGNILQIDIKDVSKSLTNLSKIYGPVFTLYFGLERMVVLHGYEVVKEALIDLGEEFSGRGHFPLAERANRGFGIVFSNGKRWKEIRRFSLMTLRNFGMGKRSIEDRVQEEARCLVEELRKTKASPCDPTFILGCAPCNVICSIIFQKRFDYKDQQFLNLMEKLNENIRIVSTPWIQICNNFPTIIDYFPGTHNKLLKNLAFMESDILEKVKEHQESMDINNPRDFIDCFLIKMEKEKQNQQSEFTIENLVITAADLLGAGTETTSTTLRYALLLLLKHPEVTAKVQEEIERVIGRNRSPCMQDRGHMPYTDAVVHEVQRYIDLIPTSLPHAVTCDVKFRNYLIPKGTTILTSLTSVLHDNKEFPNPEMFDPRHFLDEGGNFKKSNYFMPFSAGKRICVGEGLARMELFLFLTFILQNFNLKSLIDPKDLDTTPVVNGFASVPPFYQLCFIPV
Sequence of Cytochrome P450 3A4 (P08684 whole entry): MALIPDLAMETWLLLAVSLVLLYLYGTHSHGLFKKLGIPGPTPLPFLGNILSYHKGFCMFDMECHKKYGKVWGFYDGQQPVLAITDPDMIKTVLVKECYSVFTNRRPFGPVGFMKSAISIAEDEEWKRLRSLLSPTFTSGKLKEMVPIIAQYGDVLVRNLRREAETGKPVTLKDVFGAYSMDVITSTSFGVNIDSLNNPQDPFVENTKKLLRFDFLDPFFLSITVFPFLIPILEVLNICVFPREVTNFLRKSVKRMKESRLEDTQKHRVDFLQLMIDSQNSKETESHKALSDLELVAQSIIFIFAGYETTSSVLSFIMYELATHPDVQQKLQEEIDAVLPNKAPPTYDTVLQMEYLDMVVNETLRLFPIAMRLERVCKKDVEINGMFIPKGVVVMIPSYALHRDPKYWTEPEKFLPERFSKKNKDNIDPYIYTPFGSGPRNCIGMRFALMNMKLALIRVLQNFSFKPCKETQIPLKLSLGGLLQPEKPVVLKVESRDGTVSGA

The first assay has as its target T1, Streptokinase A (Streptococcus pyogenes serotype M1, UniProt P10520).
T1 sequence (P10520 whole entry): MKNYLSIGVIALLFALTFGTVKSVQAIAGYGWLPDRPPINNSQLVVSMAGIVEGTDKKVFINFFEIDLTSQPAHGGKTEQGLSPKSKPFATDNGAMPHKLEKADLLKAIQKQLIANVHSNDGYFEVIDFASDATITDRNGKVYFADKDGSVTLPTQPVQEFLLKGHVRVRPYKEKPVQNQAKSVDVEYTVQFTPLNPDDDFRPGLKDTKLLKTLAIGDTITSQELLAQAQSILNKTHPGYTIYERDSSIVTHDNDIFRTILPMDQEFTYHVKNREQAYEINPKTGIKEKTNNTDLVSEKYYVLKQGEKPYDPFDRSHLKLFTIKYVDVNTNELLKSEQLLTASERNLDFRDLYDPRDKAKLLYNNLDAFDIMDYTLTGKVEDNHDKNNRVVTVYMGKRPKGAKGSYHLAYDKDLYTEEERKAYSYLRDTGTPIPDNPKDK
Briefly: S. pyogenes streptokinase expression inhibitors, potency, dose response, plasminogen activation absorbance, OD405 (AID 1914).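 Also: secreted streptokinase activity via plasminogen activation per viability signal from cell pellet.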 Format: functional, Streptococcus pyogenes M1 GAS.
Conditions: not given
Consider `Cc1ccnc(NC(c2ccsc2)c2ccc3ccc(C)nc3c2O)c1` (stereo not drawn), for which the EC50 was > 150 µM (not active).

The target in a further assay is T2, Heat shock factor protein 1 (Mus musculus, UniProt P38532).
T2 sequence (P38532 whole entry): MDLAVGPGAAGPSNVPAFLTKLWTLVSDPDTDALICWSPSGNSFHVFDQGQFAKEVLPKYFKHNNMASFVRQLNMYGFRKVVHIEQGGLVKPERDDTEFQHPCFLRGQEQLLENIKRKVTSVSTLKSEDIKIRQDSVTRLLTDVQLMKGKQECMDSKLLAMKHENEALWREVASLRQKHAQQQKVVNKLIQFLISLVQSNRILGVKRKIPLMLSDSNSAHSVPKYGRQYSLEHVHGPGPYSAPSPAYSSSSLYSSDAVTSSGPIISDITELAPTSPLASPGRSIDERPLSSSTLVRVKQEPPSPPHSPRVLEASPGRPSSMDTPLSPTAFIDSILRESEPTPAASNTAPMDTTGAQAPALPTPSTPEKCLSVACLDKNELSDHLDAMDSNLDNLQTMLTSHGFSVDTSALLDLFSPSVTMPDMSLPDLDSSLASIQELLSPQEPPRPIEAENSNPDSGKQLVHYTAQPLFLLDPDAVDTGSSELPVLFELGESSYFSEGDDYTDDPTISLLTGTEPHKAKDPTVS
Briefly: inhibition of MG132-induced HSE-luciferase signal, confirmation, cell-based, NIH3T3, luminescence, dose retest (AID 2382).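 Also: NIH3T3 fibroblasts with HSF1-driven luciferase reporter stressed by proteasome inhibitor MG132; luminescence from HSF1-driven luciferase expression after 8 hours of MG132 stress.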 Format: functional.
Conditions: not given
Consider `COc1ccccc1CCC(=O)OCC(=O)Nc1cccc(S(=O)(=O)N2CCOCC2)c1`, for which the EC50 is reported as > 195 µM (not active). For the compound `CCN(CC)CCNCc1cc(Cl)ccc1OCc1ccccc1F`, the EC50 is listed as > 195 µM (not active). Same read-out and setting: to `COc1ccc(-c2cc(C(=O)Nc3ccc(S(N)(=O)=O)cc3)c3ccccc3n2)cc1OC` belongs > 195 µM (not active); to `COc1cccc(-c2c(NC(C)=O)n(C)c3ccccc3c2=O)c1`, > 195 µM (not active). Same read-out and setting: to `Cc1cccc(OCC(=O)Nc2cccc(C(=O)NCC(C)C)c2)c1` belongs > 195 µM (not active). Same read-out and setting: to `O=C(CSc1ccc(-c2ccccn2)nn1)NC1CCCCC1` belongs > 195 µM (not active); to `Cc1cc(C(=O)CSc2ccc(F)cc2)cc(C)c1OC(=S)N(C)C`, < 0.16 µM (active). `COc1ccc(CCNC(=O)Cc2nn(C)c(=O)c3ccccc23)cc1OC`: the EC50 is recorded as > 195 µM (not active).

In the case of `CN1CCc2c(sc3c2c(=O)n(-c2ccc(Cl)cc2)c2nncn32)C1`, the 50% effective concentration (EC50) is given as > 195 µM (not active).

On to `CC(C)=CCN1CCN(Cc2cc(F)ccc2-n2nc(C)cc2C)CC1CCO` (stereo not drawn), for which the 50% effective concentration (EC50) is > 195 µM (not active). Same read-out and setting: next, `CCOC(=O)c1ccc(N/C=C/C(=O)c2ccc(OC)cc2)cc1`: > 195 µM (not active).

In the case of `CCS(=O)(=O)N1CCN(C(=O)c2ccccc2)CC1`, the EC50 was > 195 µM (not active). Turning to `COc1nc(N)c(C#N)c(-c2ccc(N(C)CCC#N)cc2)c1C#N`, the EC50 is 15.6 µM (active). Turning to `Cc1cc(O)nc(CCl)n1`, the concentration for a half-maximal effect (EC50) is > 195 µM (not active). On the same count and under the same terms, next, `CCOc1ccc(NCc2nnc(SCc3ccccc3Cl)n2-c2ccccc2)cc1`: > 195 µM (not active); `Cc1cc(C2(c3cc(C)c(NC(=O)CN4CCOCC4)c(C)c3)CCCCC2)cc(C)c1NC(=O)CN1CCOCC1`: > 195 µM (not active).

As for `Cc1ccc(S(=O)(=O)N(C)CC(=O)N2CCc3ccccc32)cc1`, the half-maximal effective concentration (EC50) is > 195 µM (not active). For the compound `Cc1ccnc(NC(c2ccsc2)c2ccc3ccc(C)nc3c2O)c1` (stereo not drawn), the EC50 is > 195 µM (not active). On the same count and under the same terms, next, `CCC1CCCCN1CCCNC(=O)CSc1nc2nc(C)c(Cc3ccc(C)cc3)c(C)n2n1` (stereo not drawn): > 195 µM (not active); `CCOC(=O)c1c(NC(=O)COC(=O)c2nccnc2N)sc(C(=O)N(C)C)c1C`: > 195 µM (not active); `CC(C)(C)C1CCc2c(sc(NC(=O)CSc3nc[nH]n3)c2C#N)C1` (stereo not drawn): > 195 µM (not active).

The next assay concerns the target Cytochrome P450 3A4 (Homo sapiens, UniProt P08684).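 Also: CYP3A4 tested as one member of a cytochrome P450 panel screen.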
Conditions: not given
Turning to `CCOC(=O)c1ccc(N/C=C/C(=O)c2ccc(OC)cc2)cc1`, the half-maximal activity concentration (AC50) is 6.31 µM (inconclusive).

System in a further assay: not listed separately
Nature of the assay: Luminescence Cell-Based Dose Retest to Confirm Inhibitors of Cancer Stem Cells. [Related pubchem assays (depositor defined):AID2717, AID2721]. The assay is classed as functional, Homo sapiens. As to conditions: Homo sapiens.
With `CC(C)(C)C1CCc2c(sc(NC(=O)CSc3nc[nH]n3)c2C#N)C1` (stereo not drawn), the concentration at half-maximal activity (AC50) is 4.46 µM (active).

System in another assay: not listed separately
Briefly: HEp-2 cell cytotoxicity, dose response, cytotoxicity control for RSV inhibitor project, HTS (AID 2410). Format: functional. The conditions noted are these: human respiratory syncytial virus.
As for `O=S(=O)(c1cccc(-c2csc(-c3cccnc3)n2)c1)N1CCCCC1`, the CC50 was 28.9 µM (active). For the compound `O=C(COC(=O)c1ccccc1C(=O)c1ccccc1)Nc1ccc(SC(F)F)cc1`, the half-maximal cytotoxic concentration (CC50) is 16.4 µM (active). Consider `Cc1c(C(=O)NNC(=O)Nc2ccc([N+](=O)[O-])cc2)oc2ccccc12`, for which the CC50 is > 50 µM (active). Take `Cc1cc(-n2c(C)cc(C(=O)COC(=O)CNC3=NS(=O)(=O)c4ccccc43)c2C)no1`: the 50% cytotoxic concentration (CC50) was 25.8 µM (active). For the compound `Oc1nc(CCl)nc2cc(-c3ccc(Cl)cc3)sc12`, the half-maximal cytotoxic concentration (CC50) was 14.5 µM (active). Still for that read-out and setting: next, `Cc1ccc(-c2nn3c(C)nnc3s2)cc1N`: 22.1 µM (active). `O=[N+]([O-])c1ccc2nc(SCc3ccccc3Cl)sc2c1`: the CC50 is 29 µM (active). With `CCn1cnc2cc(NCc3ccccc3Cl)ccc21`, the 50% cytotoxic concentration (CC50) was 25 µM (active). Regarding `CCC1(c2ccccc2)NC(=O)N(CC(=O)Nc2cc(S(=O)(=O)N3CCCCCC3)ccc2OC)C1=O` (stereo not drawn), the cytotoxic concentration (CC50) was 29.9 µM (active). Still for that read-out and setting: to `Cn1cc(/C=C2\SC(=O)N(c3ccc(O)cc3)C2=O)c2ccccc21` belongs 16 µM (active); to `Cc1ccc2c(c1)c1c3n2CCN(C(=O)Cn2c(-c4ccccc4)noc2=O)C3CCC1` (stereo not drawn), 38.8 µM (active). In the case of `Cc1ccc(Nc2nc(N)c([N+](=O)[O-])c(NCc3ccco3)n2)cc1`, the CC50 was > 50 µM (active).

Take `O=C(NCc1nc2ccccc2[nH]1)C1=C[C@@H](c2csc3ccccc23)C[C@@H](OCc2ccc(CO)cc2)O1`: the half-maximal cytotoxic concentration (CC50) is 39 µM (active). With `COn1c2c(c3c4no[n+]([O-])c4ccc31)CCCC2`, the CC50 was 16.5 µM (active).

On to `CC(C)(C)c1ccc(OCc2ccc(C(=O)N/N=C/c3ccc([N+](=O)[O-])cc3)o2)cc1`, for which the 50% cytotoxic concentration (CC50) was 23.3 µM (active).

System in the next assay: not listed separately
Nature of the assay: inhibitors of intracellular T. cruzi replication, confirmation, NIH3T3 host cells, beta-gal luminescence (AID 2044).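 Also: intracellular parasites grown in NIH/3T3 mouse fibroblasts as host cells; luminescent beta-galactosidase reporter signal from transgenic T. cruzi replicating inside host cells; inhibitors lower the luminescence signal.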 Format: functional, cell-based.
Conditions: not given
Regarding `Oc1nc(CCl)nc2cc(-c3ccc(Cl)cc3)sc12`, the 50% effective concentration (EC50) is 1.14 µM (active). For the compound `Cc1ccnc(NC(c2ccsc2)c2ccc3ccc(C)nc3c2O)c1` (stereo not drawn), the EC50 was 1.64 µM (active).

In a further assay the test system is Streptococcus sp. 'group A'. Nature of the assay: growth inhibition of control SK(-) GAS strain, dose response, counter-screen for streptokinase expression inhibitor project, luminescence, kanamycin, BacTiterGlo, confirmation (AID 1900). The assay is classed as functional, organism-based.
Conditions: not given
For orientation: A counterscreen serves to expose hits that act by an unwanted route or on another target.
As for `Cc1ccnc(NC(c2ccsc2)c2ccc3ccc(C)nc3c2O)c1` (stereo not drawn), the concentration for a half-maximal effect (EC50) is 10.6 µM (active).

A further assay has as its target Cytochrome P450 2C19 (Homo sapiens, UniProt P33261). Nature of the assay: Cytochrome panel assay with activity outcomes. Panel member name: p450-cyp2c19 Compounds with AC50 equal or less than 10 uM are considered active. The conditions noted are these: read-out: AC50. The assay is classed as functional.
Regarding `CCOC(=O)c1ccc(N/C=C/C(=O)c2ccc(OC)cc2)cc1`, the AC50 is 2.82 µM (inconclusive).

The target of the next assay is T3, Cytochrome P450 1A2 (Homo sapiens, UniProt P05177).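 Also: PubChem cytochrome P450 panel assay, CYP1A2 panel member.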
T3 sequence (P05177 whole entry): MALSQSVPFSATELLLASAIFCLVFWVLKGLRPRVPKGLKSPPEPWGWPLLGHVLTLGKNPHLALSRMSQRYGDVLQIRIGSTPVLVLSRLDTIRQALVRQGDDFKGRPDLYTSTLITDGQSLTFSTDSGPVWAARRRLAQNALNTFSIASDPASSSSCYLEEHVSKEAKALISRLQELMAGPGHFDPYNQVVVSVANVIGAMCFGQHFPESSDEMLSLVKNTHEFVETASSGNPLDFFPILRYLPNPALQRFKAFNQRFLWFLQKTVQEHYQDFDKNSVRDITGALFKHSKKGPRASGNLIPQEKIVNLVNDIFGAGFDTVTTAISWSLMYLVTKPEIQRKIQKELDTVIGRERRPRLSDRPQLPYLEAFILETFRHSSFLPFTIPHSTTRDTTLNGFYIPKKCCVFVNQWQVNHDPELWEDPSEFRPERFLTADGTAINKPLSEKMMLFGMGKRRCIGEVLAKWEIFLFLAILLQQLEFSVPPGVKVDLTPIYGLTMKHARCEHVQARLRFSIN
Conditions: not given
In the case of `CCOC(=O)c1ccc(N/C=C/C(=O)c2ccc(OC)cc2)cc1`, the half-maximal activity concentration (AC50) is 22.4 µM (inconclusive).

A further assay concerns the target Cytochrome P450 2D6 (Homo sapiens, UniProt P10635).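 Also: CYP2D6 member of a cytochrome P450 panel assay.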
Conditions: not given
In the case of `CCOc1ccc(NCc2nnc(SCc3ccccc3Cl)n2-c2ccccc2)cc1`, the AC50 was 25.1 µM (inconclusive).

System in another assay: not listed separately
Nature of the assay: cytotoxicity toward NIH3T3 fibroblasts, dose response, counter-screen, cell-based, ATP luminescence, mouse fibroblasts (AID 2010).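 Also: cells exposed to compound for about 90 hours before reading.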 The assay is classed as functional.
Conditions: not given
As to `Oc1nc(CCl)nc2cc(-c3ccc(Cl)cc3)sc12`, the EC50 was 6.96 µM (active). On to `Cc1ccnc(NC(c2ccsc2)c2ccc3ccc(C)nc3c2O)c1` (stereo not drawn), for which the EC50 is 9.38 µM (active).

For the next assay, the system named is Streptococcus. Briefly: Group A Streptococcus viability loss, dose response, counter-screen for streptokinase expression inhibitor project, luminescence, BacTiterGlo (AID 1915).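 Also: potency for reduction of bacterial viability or growth.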 Format: functional, organism-based.
Conditions: not given
On to `Cc1ccnc(NC(c2ccsc2)c2ccc3ccc(C)nc3c2O)c1` (stereo not drawn), for which the EC50 is 20.5 µM (active).
